Several values for one entry are separate records, joined by “and”; a condition that tells them apart may be missing. Identical values can stand only once.
What was measured:
[1] = FT3 in serum by equilibrium dialysis (ED), LC-MS/MS; conditions: for Concentration ED, Average: average of 10 samples; for Concentration ED: serum, individual samples No. 1-10
Experimental: (§1) In a method in this embodiment, ultrafiltration and equilibrium dialysis are performed to separate free triiodothyronine (FT3) at 20° C., 25° C., 30° C., and 37° C., respectively. In practice, another temperature value may be used. Where
(§2) Equilibrium dialysis: 200 μL 4-hydroxyethyl piperazine ethanesulfonic acid solution is placed on the buffer side of the equilibrium plate, 200 μL serum is placed on the sample side. Subsequently, the equilibrium dialysis plate is dialyzed at 20° C., 25° C., 30° C., and 37° C. for 22 h, respectively.
Internal standard precipitation: 100 μL internal standard solution is added to 100 μL dialysate and vortexed well for 3 min. Then, centrifugation is performed at 4° C. and 12000 rpm for 10 min.
(§3) After the free T3 is separated by using ultrafiltration and equilibrium dialysis, the free T3 is detected by the following high-performance liquid chromatography tandem mass spectrometry parameters:
(§4) chromatographic column: Acquity UPLC BEH C18 (2.1×50 mm, 1.7 μm); column oven temperature: 30° C.; mobile phases: 0.1% formic acid aqueous solution (A)˜0.1% formic acid methanol (B); and gradient elution: […]
(§5) ion source: electrospray ion source in positive ion mode; spray voltage: 5500 V; ion source temperature: 550° C.; GS1: 50 psi; GS2: 50 psi; curtain gas: 30 psi; and multiple reaction monitoring: […]

[2] = FT3 in serum by ultrafiltration (UF), LC-MS/MS; conditions: for Concentration UF, Average: average of 10 samples; for Concentration UF: serum, individual samples No. 1-10
Experimental: as §1
(§6) Ultrafiltration: 100 μL 4-hydroxyethyl piperazine ethanesulfonic acid solution is added to a 100 μL serum, and the solution is mixed well by pipettes. Subsequently, the obtained mixture is transferred to the activated ultrafiltration tube and centrifuged at 20° C., 25° C., 30° C., and 37° C., and 2000 g for 1 h, respectively.
Internal standard precipitation: 100 μL internal standard solution is added to 100 μL ultrafiltrate, and vortexed well for 3 min. Then, centrifugation is performed at 4° C. and 12000 rpm for 10 min.
as §3, §4, §5

[3] = FT4 in serum by ultrafiltration (UF), LC-MS/MS; assay type: in vitro ADME, human; conditions: for Concentration UF, Average: average of 10 samples; for Concentration UF: serum, individual samples No. 1-10
Excerpt: (§7) In practice, other temperatures can also be used. […] Where

[4] = FT4 in serum by equilibrium dialysis (ED), LC-MS/MS; assay type: in vitro ADME, human; conditions: for Concentration ED, Average: average of 10 samples; for Concentration ED: serum, individual samples No. 1-10
Excerpt: as §7

[5] = free testosterone in serum by ultrafiltration (UF), LC-MS/MS; conditions: for Concentration UF, Average: average of 10 samples; for Concentration UF: serum, individual samples No. 1-10
Experimental: (§8) In practice, other temperatures can also be used. Subsequently, high-performance liquid chromatography tandem mass spectrometry is used for detection, and results are shown in Table 1. Where
as §6, with “900” for “100”, “300” for “a 100”
Solid-phase extraction: 20 μL internal standard solution is added to 600 μL ultrafiltrate, and vortexed well. The obtained mixture is added to an activated HLB solid-phase extraction: conditioning is performed twice by 300 μL 10% methanol aqueous solution, elution is performed twice by 300 μL 90% methanol aqueous solution, eluent is merged and blown to dry by nitrogen, and finally, the obtained product is redissolved by 100 μL 50% methanol aqueous solution.
(§9) Chromatographic column: Acquity UPLC BEH C18 (2.1×50 mm, 1.7 μm); column oven temperature: 40° C.; mobile phases: 0.1% formic acid 2 mM ammonium acetate aqueous solution (A)˜methanol (B); and gradient elution: […]
as §5

[6] = free testosterone in serum by equilibrium dialysis (ED), LC-MS/MS; conditions: for Concentration ED, Average: average of 10 samples; for Concentration ED: serum, individual samples No. 1-10
Experimental: as §8
as §2, with “the equilibrium dialysis plate, 200” for “the equilibrium plate, 200”
Solid-phase extraction: 20 μL internal standard solution is added to 200 μL dialysate, and vortexed well. The obtained mixture is added to an activated HLB solid-phase extraction: conditioning is performed twice by 300 μL 10% methanol aqueous solution, elution is performed twice by using 300 μL 90% methanol aqueous solution, eluent is merged and blown to dry by nitrogen, and finally, the obtained product is redissolved by 100 μL 50% methanol aqueous solution.
as §9, §5

Structure (SMILES): N[C@@H](Cc1cc(I)c(Oc2ccc(O)c(I)c2)c(I)c1)C(=O)O [FT3, triiodothyronine]
- Concentration ED, Average ([1]; 20° C.): 2.40 pg/mL
- Concentration ED ([1]; 20° C.): 2.45 pg/mL and 2.62 pg/mL and 2.25 pg/mL and 2.35 pg/mL and 2.48 pg/mL and 2.36 pg/mL and 2.27 pg/mL and 2.46 pg/mL and 2.42 pg/mL and 2.31 pg/mL
- Concentration ED, Average ([1]; 25° C.): 2.61 pg/mL
- Concentration ED ([1]; 25° C.): 2.65 pg/mL and 2.75 pg/mL and 2.52 pg/mL and 2.61 pg/mL and 2.48 pg/mL and 2.54 pg/mL and 2.68 pg/mL and 2.70 pg/mL and 2.63 pg/mL and 2.57 pg/mL
- Concentration ED, Average ([1]; 30° C.): 2.77 pg/mL
- Concentration ED ([1]; 30° C.): 2.72 pg/mL and 2.65 pg/mL and 2.85 pg/mL (2×) and 2.88 pg/mL and 2.68 pg/mL and 2.76 pg/mL and 2.78 pg/mL (2×) and 2.71 pg/mL
- 2nd conc. (ED) ([1]; 37° C. equilibrium dialysis 22 h, 60 different serum specimens): 3.05 and 3.18 and 3.17 and 3.22 and 3.04 and 3.24 and 3.19 and 3.48
- Concentration ED, Average ([1]; 37° C.): 3.22 pg/mL
- Concentration ED ([1]; 37° C.): 3.13 pg/mL and 3.22 pg/mL and 3.04 pg/mL and 3.32 pg/mL and 3.15 pg/mL and 3.31 pg/mL (2×) and 3.34 pg/mL and 3.28 pg/mL and 3.12 pg/mL
- Concentration UF, Average ([2]; 20° C.): 2.34 pg/mL
- Concentration UF ([2]; 20° C.): 2.54 pg/mL and 2.25 pg/mL and 2.36 pg/mL (2×) and 2.41 pg/mL and 2.32 pg/mL and 2.28 pg/mL and 2.17 pg/mL and 2.52 pg/mL and 2.23 pg/mL
- Concentration UF, Average ([2]; 25° C.): 2.58 pg/mL
- Concentration UF ([2]; 25° C.): 2.52 pg/mL and 2.62 pg/mL and 2.45 pg/mL and 2.68 pg/mL and 2.58 pg/mL and 2.46 pg/mL and 2.57 pg/mL and 2.65 pg/mL and 2.71 pg/mL and 2.53 pg/mL
- Concentration UF, Average ([2]; 30° C.): 2.73 pg/mL
- Concentration UF ([2]; 30° C.): 2.68 pg/mL and 2.75 pg/mL (2×) and 2.82 pg/mL and 2.66 pg/mL and 2.78 pg/mL and 2.58 pg/mL and 2.84 pg/mL and 2.72 pg/mL and 2.67 pg/mL
- Concentration UF, Average ([2]; 37° C.): 3.19 pg/mL
- Concentration UF ([2]; 37° C.): 3.05 pg/mL (2×) and 3.24 pg/mL and 3.13 pg/mL and 3.48 pg/mL and 3.20 pg/mL and 3.18 pg/mL and 3.27 pg/mL and 3.08 pg/mL and 3.17 pg/mL

Structure (SMILES): N[C@@H](Cc1cc(I)c(Oc2cc(I)c(O)c(I)c2)c(I)c1)C(=O)O [FT4, thyroxine]
- Concentration UF, Average ([3]; 20° C.): 6.85 pg/mL
- Concentration UF ([3]; 20° C.): 7.21 pg/mL and 6.77 pg/mL and 6.78 pg/mL (2×) and 6.40 pg/mL and 6.94 pg/mL and 6.85 pg/mL and 7.01 pg/mL and 6.90 pg/mL and 6.81 pg/mL
- Concentration UF, Average ([3]; 25° C.): 8.51 pg/mL
- Concentration UF ([3]; 25° C.): 7.92 pg/mL and 8.97 pg/mL and 8.74 pg/mL and 8.58 pg/mL and 8.14 pg/mL and 8.06 pg/mL and 8.57 pg/mL and 8.72 pg/mL and 8.63 pg/mL and 8.76 pg/mL
- Concentration UF, Average ([3]; 30° C.): 10.58 pg/mL
- Concentration UF ([3]; 30° C.): 10.73 pg/mL and 9.82 pg/mL and 10.55 pg/mL and 10.61 pg/mL and 10.97 pg/mL and 10.75 pg/mL and 10.82 pg/mL and 10.57 pg/mL and 10.33 pg/mL and 10.63 pg/mL
- Concentration UF, Average ([3]; 37° C.): 14.00 pg/mL
- Concentration UF ([3]; 37° C.): 13.45 pg/mL and 13.82 pg/mL and 14.14 pg/mL and 13.57 pg/mL and 14.22 pg/mL and 14.58 pg/mL and 13.74 pg/mL and 14.05 pg/mL and 14.26 pg/mL and 14.16 pg/mL
- Concentration ED, Average ([4]; 20° C.): 6.83 pg/mL
- Concentration ED ([4]; 20° C.): 7.05 pg/mL (2×) and 6.91 pg/mL and 6.85 pg/mL and 6.76 pg/mL and 6.71 pg/mL and 6.42 pg/mL and 6.83 pg/mL and 6.84 pg/mL and 6.90 pg/mL
- Concentration ED, Average ([4]; 25° C.): 8.53 pg/mL
- Concentration ED ([4]; 25° C.): 8.37 pg/mL and 8.33 pg/mL and 8.83 pg/mL and 8.05 pg/mL and 8.24 pg/mL and 8.94 pg/mL and 8.47 pg/mL and 8.69 pg/mL and 8.73 pg/mL and 8.65 pg/mL
- Concentration ED, Average ([4]; 30° C.): 10.80 pg/mL
- Concentration ED ([4]; 30° C.): 10.91 pg/mL and 11.07 pg/mL and 11.18 pg/mL and 10.63 pg/mL (2×) and 10.46 pg/mL and 10.98 pg/mL and 10.74 pg/mL and 10.67 pg/mL and 10.75 pg/mL
- Concentration ED, Average ([4]; 37° C.): 14.22 pg/mL
- Concentration ED ([4]; 37° C.): 14.17 pg/mL and 14.64 pg/mL and 13.61 pg/mL and 14.22 pg/mL and 14.67 pg/mL and 14.63 pg/mL and 13.94 pg/mL and 14.15 pg/mL and 14.11 pg/mL and 14.06 pg/mL

Structure (SMILES): C[C@]12CC[C@H]3[C@@H](CCC4=CC(=O)CC[C@@]43C)[C@@H]1CC[C@@H]2O [free testosterone, testosterone]
- Concentration UF, Average ([5]; 20° C.): 4.12 pg/mL
- Concentration UF ([5]; 20° C.): 4.26 pg/mL and 4.29 pg/mL and 4.01 pg/mL and 4.38 pg/mL and 3.98 pg/mL and 3.92 pg/mL and 4.15 pg/mL and 4.12 pg/mL and 3.97 pg/mL and 4.07 pg/mL
- Concentration UF, Average ([5]; 25° C.): 4.50 pg/mL
- Concentration UF ([5]; 25° C.): 4.37 pg/mL and 4.64 pg/mL (2×) and 4.51 pg/mL (2×) and 4.45 pg/mL and 4.39 pg/mL and 4.48 pg/mL and 4.43 pg/mL and 4.61 pg/mL
- Concentration UF, Average ([5]; 30° C.): 4.81 pg/mL
- Concentration UF ([5]; 30° C.): 4.69 pg/mL and 4.96 pg/mL (2×) and 4.83 pg/mL and 4.79 pg/mL and 4.58 pg/mL and 4.85 pg/mL and 4.91 pg/mL and 4.74 pg/mL and 4.77 pg/mL
- Concentration UF, Average ([5]; 37° C.): 5.16 pg/mL
- Concentration UF ([5]; 37° C.): 5.12 pg/mL and 5.28 pg/mL and 5.30 pg/mL and 5.04 pg/mL and 5.16 pg/mL (2×) and 5.18 pg/mL and 5.24 pg/mL and 5.03 pg/mL and 5.07 pg/mL
- Concentration ED, Average ([6]; 20° C.): 4.08 pg/mL
- Concentration ED ([6]; 20° C.): 4.05 pg/mL (2×) and 4.17 pg/mL and 3.94 pg/mL and 4.21 pg/mL and 3.85 pg/mL and 4.18 pg/mL and 4.01 pg/mL and 4.16 pg/mL and 4.22 pg/mL
- Concentration ED, Average ([6]; 25° C.): 4.55 pg/mL
- Concentration ED ([6]; 25° C.): 4.75 pg/mL and 4.61 pg/mL and 4.48 pg/mL and 4.56 pg/mL and 4.41 pg/mL and 4.62 pg/mL and 4.57 pg/mL and 4.42 pg/mL and 4.50 pg/mL and 4.54 pg/mL
- Concentration ED, Average ([6]; 30° C.): 4.93 pg/mL
- Concentration ED ([6]; 30° C.): 5.04 pg/mL and 5.01 pg/mL and 4.95 pg/mL and 5.02 pg/mL and 4.85 pg/mL and 4.87 pg/mL and 4.91 pg/mL and 4.98 pg/mL and 4.84 pg/mL and 4.82 pg/mL
- Concentration ED, Average ([6]; 37° C.): 5.21 pg/mL
- Concentration ED ([6]; 37° C.): 5.40 pg/mL and 4.95 pg/mL and 5.23 pg/mL and 5.42 pg/mL and 5.12 pg/mL and 5.32 pg/mL and 5.22 pg/mL and 5.27 pg/mL and 5.13 pg/mL and 5.07 pg/mL

Source: US20240319211A1, “CONTENT CONVERSION METHOD OF FREE COMPONENTS BY TRANSFORMING ULTRAFILTRATION TO EQUILIBRIUM DIALYSIS” (HEFEI NOVA-MS BIOTECH MEDICAL EQUIPMENT CO., LTD, priority 2022, published 2024)
